Measurements reported in the supplement of paper PMC10307832.

Assays:
Test in all cases: relative viability (nuclei count vs DMSO), 5 days (fraction); higher = more cells survive
Sorafenib + Trametinib = compound: CNC(=O)c1cc(Oc2ccc(NC(=O)Nc3ccc(Cl)c(C(F)(F)F)c3)cc2)ccn1 [Sorafenib] + CC(=O)Nc1cccc(-n2c(=O)n(C3CC3)c(=O)c3c(Nc4ccc(I)cc4F)n(C)c(=O)c(C)c32)c1 [Trametinib] (partner 0.02 µM)
Summary of the method: (§1)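 Relative viability equals treated-well nuclei counts divided by vehicle-well nuclei counts. Counts came from 4× images of lung cancer cell lines grown in 1536-well plates for 5 days after pin-tool dosing on the day after seeding. Dosing used one drug alone or a fixed anchor-drug dose plus five library-drug doses (not always all listed) in √10 steps, and values are medians of duplicate plates.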

Sorafenib + Luminespib = compound: CNC(=O)c1cc(Oc2ccc(NC(=O)Nc3ccc(Cl)c(C(F)(F)F)c3)cc2)ccn1 [Sorafenib] + CCNC(=O)c1noc(-c2cc(C(C)C)c(O)cc2O)c1-c1ccc(CN2CCOCC2)cc1 [Luminespib] (partner 0.01 µM)
Summary of the method: as §1

Sorafenib + OSI-027 = compound: CNC(=O)c1cc(Oc2ccc(NC(=O)Nc3ccc(Cl)c(C(F)(F)F)c3)cc2)ccn1 [Sorafenib] + COc1cccc2cc(-c3nc([C@H]4CC[C@H](C(=O)O)CC4)n4ncnc(N)c34)[nH]c12 [OSI-027] (partner 0.5 µM)
Summary of the method: as §1

Sorafenib + Dasatinib = compound: CNC(=O)c1cc(Oc2ccc(NC(=O)Nc3ccc(Cl)c(C(F)(F)F)c3)cc2)ccn1 [Sorafenib] + Cc1nc(Nc2ncc(C(=O)Nc3c(C)cccc3Cl)s2)cc(N2CCN(CCO)CC2)n1 [Dasatinib] (partner 0.075 µM)
Summary of the method: as §1

Sorafenib + Phenformin = compound: CNC(=O)c1cc(Oc2ccc(NC(=O)Nc3ccc(Cl)c(C(F)(F)F)c3)cc2)ccn1 [Sorafenib] + N=C(N)NC(=N)NCCc1ccccc1 [Phenformin] (partner 250 µM)
Summary of the method: as §1

Cell Line	relative viability (Sorafenib + Trametinib; first compound 0.08 µM)	relative viability (Sorafenib + Trametinib; first compound 0.253 µM)	relative viability (Sorafenib + Trametinib; first compound 2.53 µM)	relative viability (Sorafenib + Trametinib; first compound 8 µM)	relative viability (Sorafenib + Luminespib; first compound 0.08 µM)	relative viability (Sorafenib + Luminespib; first compound 0.253 µM)	relative viability (Sorafenib + Luminespib; first compound 2.53 µM)	relative viability (Sorafenib + Luminespib; first compound 8 µM)	relative viability (Sorafenib + OSI-027; first compound 0.08 µM)	relative viability (Sorafenib + OSI-027; first compound 0.253 µM)	relative viability (Sorafenib + OSI-027; first compound 2.53 µM)	relative viability (Sorafenib + OSI-027; first compound 8 µM)	relative viability (Sorafenib + Dasatinib; first compound 0.08 µM)	relative viability (Sorafenib + Dasatinib; first compound 0.253 µM)	relative viability (Sorafenib + Dasatinib; first compound 2.53 µM)	relative viability (Sorafenib + Dasatinib; first compound 8 µM)	relative viability (Sorafenib + Phenformin; first compound 0.08 µM)	relative viability (Sorafenib + Phenformin; first compound 0.253 µM)	relative viability (Sorafenib + Phenformin; first compound 2.53 µM)	relative viability (Sorafenib + Phenformin; first compound 8 µM)
NCI-H596	0.844	0.735	0.807	0.75	0.889	1.04	0.977	0.911	0.732	0.664	0.671	0.447	0.68	0.53	0.55	0.461	0.787	0.587	0.665	0.86
NCI-H647	0.583	0.388	0.235	0.144	0.182	0.0896	0.148	0.15	0.62	0.634	0.506	0.427	0.245	0.172	0.174	0.135	0.636	0.495	0.454	0.198
NCI-H650	0.989	0.937	0.866	0.578	0.809	0.639	0.605	0.677	0.541	0.363	0.451	0.504	0.508	0.367	0.462	0.425	0.45	0.399	0.461	0.428
NCI-H661	0.584		0.444	0.291	0.931	0.928	0.822	0.293	0.759	0.73	0.655	0.483	0.978	0.82	0.815	0.215	0.279	0.143	0.289	0.215
NCI-H727	0.416	0.351	0.391	0.367	0.528	0.344	0.501	0.221	0.688	0.542	0.619	0.508	0.481	0.453	0.399	0.232	0.634	0.416	0.439	0.507
NCI-H838	0.606	0.507	0.498	0.291	0.346	0.33	0.402	0.243	0.52	0.438	0.615	0.539	0.285	0.277	0.318	0.293	0.749		0.948	0.388
NCI-H1355	0.493	0.419	0.42	0.264	0.717	0.687	0.779	0.62	0.459	0.38	0.512	0.336	0.74	0.627	0.816	0.54	0.497	0.468	0.452	0.387
NCI-H1395	1.25		1.04	0.846	0.742	0.703	0.576	0.53	0.691	0.562	0.72	0.459	0.454	0.371	0.423	0.329	0.51	0.407	0.453	0.392
NCI-H1437	0.59	0.389	0.533	0.342	1.1	1.06	1.17		0.949	0.676	0.8	0.558	0.416	0.288	0.421	0.142	0.301	0.299	0.302	0.306
NCI-H1650	0.858	0.499	0.752	0.241	0.183	0.183	0.193	0.209	0.83	0.599	0.908	0.31	0.366	0.33	0.296	0.172	0.557	0.456	0.564	0.164
NCI-H1651	0.853	0.791	0.835	0.74	0.965	0.778	0.958	0.319	0.777	0.687	0.655	0.622	0.456	0.35	0.612	0.13	0.389	0.307	0.318	0.148
NCI-H1666	0.954	0.764	0.762	0.639		1.03	0.951	0.872	0.912	0.781	0.798	0.692	0.913	0.788	0.829		0.562	0.546	0.544	0.452
NCI-H1734	0.71	0.646	0.577	0.324	0.235	0.131	0.186	0.161	0.585	0.534	0.584	0.318	0.536	0.402	0.402	0.357	0.459	0.362	0.411	0.236
NCI-H1755	0.8	0.761	0.71	0.557	0.67	0.399	0.371	0.404	0.718	0.639	0.746	0.666	0.419	0.436	0.409	0.35	0.569		0.624	0.534
NCI-H1792	0.527	0.461	0.421	0.177	0.438	0.358	0.534	0.353	0.811	0.697	0.695	0.394	0.825	0.742	0.863	0.554	0.199	0.309	0.234	0.181
NCI-H1793	0.398	0.429	0.325	0.253	0.23	0.207	0.199	0.187	0.29	0.303	0.299	0.162	0.411	0.356	0.379	0.406	0.453	0.329	0.418	0.293

Cell Line	relative viability (Sorafenib + Trametinib; first compound 0.08 µM)	relative viability (Sorafenib + Trametinib; first compound 0.253 µM)	relative viability (Sorafenib + Trametinib; first compound 2.53 µM)	relative viability (Sorafenib + Trametinib; first compound 8 µM)	relative viability (Sorafenib + Luminespib; first compound 0.08 µM)	relative viability (Sorafenib + Luminespib; first compound 0.253 µM)	relative viability (Sorafenib + Luminespib; first compound 2.53 µM)	relative viability (Sorafenib + Luminespib; first compound 8 µM)	relative viability (Sorafenib + OSI-027; first compound 0.08 µM)	relative viability (Sorafenib + OSI-027; first compound 0.253 µM)	relative viability (Sorafenib + OSI-027; first compound 2.53 µM)	relative viability (Sorafenib + OSI-027; first compound 8 µM)	relative viability (Sorafenib + Dasatinib; first compound 0.08 µM)	relative viability (Sorafenib + Dasatinib; first compound 0.253 µM)	relative viability (Sorafenib + Dasatinib; first compound 2.53 µM)	relative viability (Sorafenib + Dasatinib; first compound 8 µM)	relative viability (Sorafenib + Phenformin; first compound 0.08 µM)	relative viability (Sorafenib + Phenformin; first compound 0.253 µM)	relative viability (Sorafenib + Phenformin; first compound 2.53 µM)	relative viability (Sorafenib + Phenformin; first compound 8 µM)
NCI-H1915	0.322	0.289	0.204	0.125	0.848	0.678		0.751	0.659	0.558	0.682	0.512	0.326	0.327	0.402	0.273	0.357	0.33	0.359	0.341
NCI-H1944	0.384	0.436	0.367	0.253	0.697	0.634		0.552	0.4	0.381	0.436	0.334	0.213	0.229	0.245	0.206	0.207	0.188	0.21	0.144
NCI-H1975	0.526	0.32	0.291	0.242	0.426	0.201	0.24	0.153	0.812	0.55	0.695	0.375	0.423	0.305	0.374	0.314	0.462	0.403	0.429	0.341
NCI-H1993	0.515	0.521	0.529	0.506	0.921	0.489	0.999	0.543	0.477	0.517	0.504	0.435	0.547	0.302	0.554	0.384	0.516	0.51	0.499	0.499
NCI-H2009	0.339	0.282	0.204	0.159	1.03	0.868	0.915	0.476	0.629	0.355	0.601	0.303	0.346	0.23	0.325	0.16	0.47	0.365	0.433	0.157
NCI-H2023	0.686	0.539	0.459	0.112	0.828	0.761	0.826	0.136	0.51	0.338	0.387	0.19	0.681	0.485	0.601	0.275	0.51	0.395	0.374	0.174
NCI-H2085	0.643	0.464	0.43	0.391	0.483	0.414	0.424	0.448	0.934	0.544	0.704	0.396	0.311	0.271	0.26	0.237		0.623	0.756	0.48
NCI-H2087	0.19	0.233	0.199	0.15	0.192	0.183	0.236	0.123	0.658	0.556	0.455	0.3	1.03	0.744	0.684	0.154	0.467	0.403	0.389	0.14
NCI-H2126	0.581	0.541	0.623	0.589	0.981		0.882	0.864	0.824	0.665	0.712	0.703	0.735	0.533	0.652	0.501	0.539	0.529	0.603	0.501
NCI-H2170	0.896	0.805	0.99	0.804	0.527	0.707	0.706	0.592	0.72	0.681	0.647	0.51	0.771	0.485	0.6	0.518	0.403	0.437	0.43	0.361
NCI-H2228	0.802	0.377	0.356	0.266	0.181	0.178	0.154	0.105	0.626	0.607		0.365	0.543	0.434	0.465	0.271	0.362	0.285	0.259	0.133
NCI-H2342	0.887	0.749	0.71	0.682	0.662	0.637	0.597	0.582	0.676	0.522	0.542	0.482	0.32	0.27	0.29	0.28	0.67	0.487	0.528	0.381
NCI-H2347	0.3	0.308	0.266	0.314	0.625	0.433	0.763	0.62	0.48	0.378	0.458	0.391	0.74	0.351	0.351	0.308	0.519	0.398	0.351	0.326
NCI-H2405	0.784	0.461	0.413	0.324	0.868	0.705	0.79	0.446	0.679	0.662	0.731	0.546	0.217	0.183	0.2	0.214	0.421	0.334	0.405	0.259
NCI-H3122	0.234	0.208	0.176	0.129	0.11	0.105	0.0728	0.044	0.99	0.898	0.805	0.378	0.92	0.422	0.715	0.311	0.39	0.326	0.346	0.212
PC-3 [JPC-3]		0.712	0.773	0.718	0.67	0.687	0.717	0.637	0.805	0.722	0.692	0.617	1.03	0.936			0.512	0.458	0.492	0.453
